# ChEMBL document CHEMBL5113527, “First-in-Class Hydrazide-Based HDAC6 Selective Inhibitor with Potent Oral Anti-Inflammatory Activity by Attenuating NLRP3 Inflammasome Activation” (J Med Chem, 2022)
# Legend:
# [1] = Inhibition of HDAC11(unknown origin) preincubated for 1 hr followed by substrate addition and measured after 2 hrs by fluorescence based microplate reader analysis; parameters: species or system Homo sapiens
# Histone deacetylase 5 = Histone deacetylase 5 (Homo sapiens, UniProt Q9UQL6); experiment: Inhibition of recombinant HDAC5 (unknown origin) using Boc-Lys (trifluoroacetyl) AMC as substrate preincubated for 1 hr followed by substrate addition and measured after 2 hrs by fluorescence based microplate reader analysis
# J774.A1 = experiment: Antiinflammatory activity against LPS primed mouse J774.A1 cells assessed suppression of LPS/ATP induced IL-beta release preincubated for 30 mins followed by ATP stimulation measured after 30 mins by ELISA; type: functional, cell-based
# [2] = Plasma concentration in CD-1 mouse at 20 mg/kg measured after 0.5 hrs by LC-MS/MS analysis; type: ADME, organism-based
# [3] = Ratio of drug concentration in brain to plasma of CD-1 mouse measured after 2 hrs by LC-MS/MS analysis; type: ADME; settings: read-out: BPR
# Sequence of Histone deacetylase 5 (Q9UQL6 whole entry): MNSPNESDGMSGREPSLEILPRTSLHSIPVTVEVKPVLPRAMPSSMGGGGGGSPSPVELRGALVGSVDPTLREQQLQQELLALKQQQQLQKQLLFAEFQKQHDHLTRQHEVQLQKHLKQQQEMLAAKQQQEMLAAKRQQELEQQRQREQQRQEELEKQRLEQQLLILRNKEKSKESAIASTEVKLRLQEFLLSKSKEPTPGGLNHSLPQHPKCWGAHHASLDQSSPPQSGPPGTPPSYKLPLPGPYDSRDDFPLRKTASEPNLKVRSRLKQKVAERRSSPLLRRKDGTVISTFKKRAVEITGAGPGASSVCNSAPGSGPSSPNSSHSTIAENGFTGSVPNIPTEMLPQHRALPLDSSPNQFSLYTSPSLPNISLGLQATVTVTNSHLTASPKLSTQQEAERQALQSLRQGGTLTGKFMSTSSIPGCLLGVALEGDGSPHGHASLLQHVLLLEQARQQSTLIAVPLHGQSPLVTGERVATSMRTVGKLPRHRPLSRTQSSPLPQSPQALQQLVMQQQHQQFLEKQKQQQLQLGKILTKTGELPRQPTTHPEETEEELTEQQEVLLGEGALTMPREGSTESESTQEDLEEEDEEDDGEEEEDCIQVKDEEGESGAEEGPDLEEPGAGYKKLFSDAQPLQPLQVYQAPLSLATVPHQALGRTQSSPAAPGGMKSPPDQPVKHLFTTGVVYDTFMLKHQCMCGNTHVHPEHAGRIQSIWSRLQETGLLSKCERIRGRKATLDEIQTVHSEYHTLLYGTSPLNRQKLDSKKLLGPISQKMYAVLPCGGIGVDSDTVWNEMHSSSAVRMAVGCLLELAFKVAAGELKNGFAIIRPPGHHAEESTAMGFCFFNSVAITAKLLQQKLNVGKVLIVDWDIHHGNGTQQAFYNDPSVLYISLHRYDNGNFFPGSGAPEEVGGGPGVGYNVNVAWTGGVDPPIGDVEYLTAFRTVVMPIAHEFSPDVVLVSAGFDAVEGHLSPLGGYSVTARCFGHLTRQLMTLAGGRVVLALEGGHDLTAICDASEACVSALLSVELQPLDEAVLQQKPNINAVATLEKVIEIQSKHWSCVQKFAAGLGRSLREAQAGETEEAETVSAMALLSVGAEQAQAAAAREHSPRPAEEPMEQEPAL
structure (smiles),measurement,setting,value
CCNNC(=O)c1ccc(CN2c3ccccc3C=Cc3ccncc32)cc1,IC50,[1],> 5 µM
same,IC50,Histone deacetylase 5,> 5 µM
same,IC50,J774.A1,2.61 µM
same,concentration at 0.5 h,[2],7740 ng/mL
same,Kp at 2 h,[3],1.42
